# Assay results published in patent publication US20230242993A1, “METHOD FOR SCREENING MARKERS FOR PREDICTING PROGNOSIS OF RENAL CELL CARCINOMA USING TRANSCRIPTOMIC ANALYSIS” (Gwangju Institute of Science and Technology, priority 2021, published 2023).
# Experiments:
# [1] = test system: RENCA RCC cells co-cultured with RAW264.7 macrophages; assay: Transwell invasion analysis of RENCA RCC cells co-cultured with RAW264.7 macrophages; type: cell-based, mouse; settings: compound treatment, FIGS. 11, 12, 16, 17
# Protocol: RENCA mouse renal epithelial adenocarcinoma cells and RAW264.7 mouse macrophages were purchased from the Korean Cell Line Bank (Seoul, Korea). RENCA and RAW264.7 cells were maintained in Dulbecco's Modified Eagle Medium (DMEM) medium (Gibco, Thermo Fisher Scientific, Waltham, Mass., USA) supplemented with 10% FBS and 1% penicillin/streptomycin.
# Cancer cell invasion analysis was performed in a 24-well transwell plate (Corning Costar, New York, N.Y., USA). A transwell having a pore size of 8 μm was coated with Type I collagen (3 μg/60 μL/well). A total of 4×10^4 bone marrow-derived macrophage (BMDM) cells were seeded in the lower chamber and differentiated into macrophages by using cancer CM. A total of 1×10^4 cancer cells were seeded into the upper transwell. After 24 or 48 hours, cancer cells that invaded into the lower chamber through the porous membrane were fixed with 3.7% formaldehyde and stained with 0.2% crystal violet. Images of the stained cells were obtained by using an optical microscope (CKX41, Olympus, Tokyo, Japan) and analyzed by using the ImageJ software program (NIH, Bethesda, Md., RRID:SCR_003070). To evaluate the effect of DUSP22 or MAPK14 knockdown, 1×10^5 RAW264.7 cells were seeded in the lower chamber and transfected with siRNA.
# [2] = test system: RCC cells co-transplanted with macrophages; assay: Zebrafish cancer xenograft model of RCC cell dissemination (early stage of metastasis); type: in vivo; settings: macrophages treated with compound before co-transplantation with RCC cells into zebrafish embryos; vs DMSO-treated macrophages; FIGS. 14, 15
# Protocol: Evaluation of in vivo mouse RCC cell dissemination (early stage of metastasis) was performed by using a validated zebrafish model.
# Embryos of 48 hours post-fertilization were prepared for cell xenotransplantation and either 39 or 44 embryos were used for each treatment group. After the RCC cells were stained with 2 μg/mL DiI (Invitrogen), the villus of the embryos was removed, and then the embryos were anesthetized with 0.0016% tricaine. An injector (Picospritzer ? , Parker Hannifin, Cleveland, Ohio, USA) was used to inject 200 RCC cells into the center of egg yolk or a mixture of the RCC cells and DMSO-treated macrophages or of the RCC cells and DUSP inhibitor-treated macrophages (1:1 ratio) was injected to the center of egg yolk. The xenotransplanted embryos were transferred to a 96-well plate of 200 μL of E3 medium. The number of embryos, representing the dissemination of cancer cells from the injection site, was counted by using a fluorescence microscope (Leica DM2500 Microscope).
smiles,measurement,setting,value
O=C(O)c1ccc(N2C(=O)/C(=C/c3ccccc3)SC2=S)cc1 [BML-260],RCC invasion induced by the co-culture with macrophages,[1],inhibited
same,dissemination (early stage of metastasis) in vivo,[2],significantly inhibited
O=C(O)c1ccc(/C=C2\SC(=S)N(c3cccc(C(F)(F)F)c3)C2=O)cc1 [CFTRinh-172],RCC invasion induced by the co-culture with macrophages,[1],inhibited
